The values below are quoted from earlier work in patent publication US20040076968A1, “Method for detecting pre-disposition to hepatotoxicity” (priority 2000, published 2004).

The data set has as its target T1, UGT1A6*2 allelic variant (Homo sapiens, UniProt P19224, R184S/T181A).
T1 sequence (P19224 27-532 T181A/R184S): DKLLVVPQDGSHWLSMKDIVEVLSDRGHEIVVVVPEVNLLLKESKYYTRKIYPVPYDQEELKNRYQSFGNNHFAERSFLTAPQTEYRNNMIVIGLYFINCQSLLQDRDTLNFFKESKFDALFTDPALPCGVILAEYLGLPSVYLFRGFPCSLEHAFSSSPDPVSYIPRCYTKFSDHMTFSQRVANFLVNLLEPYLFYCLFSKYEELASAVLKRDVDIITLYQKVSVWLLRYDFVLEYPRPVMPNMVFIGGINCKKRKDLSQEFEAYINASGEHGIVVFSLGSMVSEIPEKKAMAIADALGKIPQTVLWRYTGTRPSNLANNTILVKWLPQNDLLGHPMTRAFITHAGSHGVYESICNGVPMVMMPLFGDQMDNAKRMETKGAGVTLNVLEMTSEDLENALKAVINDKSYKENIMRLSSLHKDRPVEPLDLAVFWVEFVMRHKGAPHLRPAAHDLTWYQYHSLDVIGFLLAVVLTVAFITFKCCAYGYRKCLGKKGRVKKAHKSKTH
The following applies: cited from earlier work; for metabolism compared with wild-type isoenzyme (in words): UGT1A6*2 expressed in COS cells.

Consider `N[C@@H](Cc1ccc(O)c(O)c1)C(=O)O` [levodopa], for which the “activity of UGT1A6 alleles Thr181Ala and Arg184Ser for the substrate” value is “reduced activity”. For `Cc1cc(=O)oc2cc(O)ccc12` [7-hydroxy-4-methylcoumarin], the “metabolism compared with wild-type isoenzyme (in words)” value is recorded as “normal levels”. As for `Oc1cccc(I)c1` [3iodophenol], the “metabolism compared with wild-type isoenzyme (in words)” value is listed as “normal levels”.

With `O=c1ccc2ccc(O)cc2o1` [7-hydroxycoumarin], the “metabolism compared with wild-type isoenzyme (in words)” value is “normal levels”.

`Oc1cccc2ccccc12` [1-Naphtol]: the “metabolism compared with wild-type isoenzyme (in words)” value is recorded as “normal levels”.

Consider `COc1ccc(O)c(C(C)(C)C)c1` [butylated hydroxy anisole], for which the “rate of metabolism relative to the wild-type isoenzyme” value (pH 6.4) was 27-75%.
